Biological target: T1, BRD4(1) (Homo sapiens, UniProt O60885)
T1 construct: first bromodomain
Test: biochemical
Design: differential scanning fluorimetry, SYPRO Orange, shift of melting temperature of 2 uM bromodomain
Conditions: read-out: BRD4(1) ΔTm (°C)

Row | ΔTm at 10 µM [°C] | Compound
1 | 0.33 | Cc1cc(=O)n(C)c2cc(N3C(=O)CC[C@H](NC(=O)OC(C)(C)C)[C@H]3C)ccc12 (relative stereo) [compound 21, 21]
2 | 0.19 | Cc1cc(=O)n(C)c2cc(N3C[C@@H](NC(=O)OC(C)(C)C)[C@H](C)CC3=O)ccc12 (relative stereo) [compound 22, 22]

From article PMC4871321 (Angewandte Chemie (Weinheim an Der Bergstrasse, Germany), 2015)
